Test results taken from article PMC12371506 (ACS Bio & Med Chem Au, 2025).
Residues, ends and D or L forms follow the SMILES beside them. *: point of attachment. Cbz = O=C(OCc1ccccc1)*; CH2F = FC*

Experiments:
caspase-9 = target: T1, caspase-9 (Homo sapiens, UniProt P55211); experiment: In vitro inhibition assay, caspase-9; assay type: biochemical
T1 sequence (P55211 1-315 limits assumed): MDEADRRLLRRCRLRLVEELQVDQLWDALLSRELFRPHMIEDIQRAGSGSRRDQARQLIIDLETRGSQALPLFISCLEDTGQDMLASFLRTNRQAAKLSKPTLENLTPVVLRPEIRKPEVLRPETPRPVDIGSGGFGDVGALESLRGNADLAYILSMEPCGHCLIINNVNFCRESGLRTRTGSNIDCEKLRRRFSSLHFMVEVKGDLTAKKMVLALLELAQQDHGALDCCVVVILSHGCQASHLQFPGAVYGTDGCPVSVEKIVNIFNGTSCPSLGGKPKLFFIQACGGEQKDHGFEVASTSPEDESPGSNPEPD
T1 sequence (P55211 331-416 limits assumed): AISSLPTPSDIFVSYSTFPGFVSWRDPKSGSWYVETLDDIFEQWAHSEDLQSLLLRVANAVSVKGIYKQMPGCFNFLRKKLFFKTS

[1] = test system: HCC1806 triple-negative breast cancer cells; experiment: TNF-α-induced extrinsic apoptosis in HCC1806 cells; details: 10 μM inhibitor 30 min, then TNF-α; early time points (2–6 h)
THP1 monocytes = experiment: TRAIL-induced extrinsic apoptosis in THP1 monocytes; assay type: cell-based, human; details: 25 μM inhibitor

Row | IC50 (caspase-9) [µM] | Compound | caspases-3/7 activation (caspase-3/7 dye) [1] | relative potency at inhibiting caspases-3/7 activity (caspases-3/7 dye) (THP1 monocytes)
1 | 0.54 ± 0.26 | CCO[C@@H]1OC(=O)C[C@@H]1NC(=O)[C@@H]1CCCN1C(=O)[C@@H](NC(=O)c1ccc(N)c(Cl)c1)C(C)(C)C [VX-765, (S)-1-((S)-2-{[1-(4-amino-3-chloro-phenyl)-methanoyl]-amino}-3,3-dimethyl-butanoyl)-pyrrolidine-2-carboxylic acid ((2R,3S)-2-ethoxy-5-oxo-tetrahydro-furan-3-yl)-amide] | – | –
2 | 1.47 ± 0.62 | CC[C@H](C)[C@H](NC(=O)OCc1ccccc1)C(=O)N[C@@H](CCC(=O)OC)C(=O)N[C@H](C(=O)N[C@@H](CC(=O)OC)C(=O)CF)[C@@H](C)O [zIETD-FMK] (Cbz-IE(OMe)TD(OMe)-CH2F) | inhibition of caspases-3/7 activation | –
3 | 0.8 ± 0.32 | COC(=O)CC[C@H](NC(=O)[C@H](CC(C)C)NC(=O)OCc1ccccc1)C(=O)N[C@@H](Cc1c[nH]cn1)C(=O)N[C@@H](CC(=O)OC)C(=O)CF [zLEHD-FMK] (Cbz-LE(OMe)HD(OMe)-CH2F) | – | more potent than zIETD-FMK
